Results from patent US6340588B1, “Matrices with memories” (Discovery Partners International, Inc., priority 1995, dated 2002).

Target: 125I-streptavidin (Streptomyces avidinii, UniProt P22629)
Sequence (P22629 25-183): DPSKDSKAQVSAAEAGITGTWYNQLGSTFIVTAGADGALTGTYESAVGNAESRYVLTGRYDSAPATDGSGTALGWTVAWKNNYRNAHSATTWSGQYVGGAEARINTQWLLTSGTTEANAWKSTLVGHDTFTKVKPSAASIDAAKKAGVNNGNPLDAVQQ

## O=C1NCC(C(=O)O)N1 (stereo not shown) [2-imidazolidone-4-carboxylic acid]
  signal in scintillation proximity assay (binding to 125I-streptavidin): lower signal
